In publication PMC4822259 (Parasites & Vectors, 2016):

What was measured:
Type in all cases: cell-based
[1] = target: T1, AgDOP2 (Anopheles gambiae, UniProt A0A1W5KQ45); assay: IP-One HTRF IP1 accumulation, inhibition of dopamine response, HEK-293
T1 sequence (A0A1W5KQ45 1-495): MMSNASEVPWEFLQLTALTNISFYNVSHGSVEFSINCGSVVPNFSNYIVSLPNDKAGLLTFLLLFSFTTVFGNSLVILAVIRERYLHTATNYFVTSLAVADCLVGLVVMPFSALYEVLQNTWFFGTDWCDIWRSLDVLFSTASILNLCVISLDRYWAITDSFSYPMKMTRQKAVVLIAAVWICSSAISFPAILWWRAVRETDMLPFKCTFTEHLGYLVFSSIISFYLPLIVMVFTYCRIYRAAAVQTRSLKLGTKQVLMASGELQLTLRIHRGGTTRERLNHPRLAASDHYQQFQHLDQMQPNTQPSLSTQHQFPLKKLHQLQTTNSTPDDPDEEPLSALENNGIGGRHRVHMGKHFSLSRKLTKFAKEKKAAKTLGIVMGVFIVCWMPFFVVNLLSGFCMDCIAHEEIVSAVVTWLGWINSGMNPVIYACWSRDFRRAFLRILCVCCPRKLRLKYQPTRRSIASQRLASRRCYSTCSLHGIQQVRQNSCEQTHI

[2] = target: T2, CqDOP2 (Culex quinquefasciatus, UniProt A0A0B5H0X6); assay: as above
T2 construct: gene DOP2; receptor expressed in HEK-293 cells, from authors' previous work
T2 sequence (A0A0B5H0X6 1-479): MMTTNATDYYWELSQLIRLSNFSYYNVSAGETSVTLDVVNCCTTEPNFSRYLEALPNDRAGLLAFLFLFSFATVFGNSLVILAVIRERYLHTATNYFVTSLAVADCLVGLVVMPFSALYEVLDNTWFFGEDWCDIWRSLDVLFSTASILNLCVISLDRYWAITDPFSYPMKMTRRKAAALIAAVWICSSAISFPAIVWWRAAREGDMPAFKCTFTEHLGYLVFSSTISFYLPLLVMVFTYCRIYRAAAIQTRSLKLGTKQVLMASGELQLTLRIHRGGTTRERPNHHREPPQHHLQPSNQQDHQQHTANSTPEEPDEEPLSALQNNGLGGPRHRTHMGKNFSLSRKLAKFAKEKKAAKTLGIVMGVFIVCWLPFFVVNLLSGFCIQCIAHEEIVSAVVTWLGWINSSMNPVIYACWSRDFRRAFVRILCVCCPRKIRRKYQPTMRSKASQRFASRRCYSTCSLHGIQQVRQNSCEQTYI

[3] = target: T3, AaDOP2 (Aedes aegypti, UniProt H6D5H2); assay: as above
T3 construct: gene dop2; receptor expressed in HEK-293 cells, from authors' previous work
T3 sequence (H6D5H2 1-476): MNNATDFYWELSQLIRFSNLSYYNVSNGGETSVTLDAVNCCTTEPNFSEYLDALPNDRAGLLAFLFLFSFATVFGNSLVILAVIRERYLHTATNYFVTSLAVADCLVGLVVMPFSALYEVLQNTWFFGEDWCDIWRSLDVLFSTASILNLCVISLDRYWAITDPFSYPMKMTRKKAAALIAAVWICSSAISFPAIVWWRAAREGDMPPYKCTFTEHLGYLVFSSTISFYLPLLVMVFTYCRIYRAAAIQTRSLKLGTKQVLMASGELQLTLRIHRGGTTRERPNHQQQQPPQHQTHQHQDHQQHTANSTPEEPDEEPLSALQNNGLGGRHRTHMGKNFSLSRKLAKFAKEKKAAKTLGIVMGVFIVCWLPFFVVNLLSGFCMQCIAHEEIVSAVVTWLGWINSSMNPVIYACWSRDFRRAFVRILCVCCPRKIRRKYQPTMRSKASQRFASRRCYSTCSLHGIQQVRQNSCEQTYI

[4] = target: T1, AgDOP2; assay: IP-One HTRF IP1 accumulation, agonist stimulation, HEK-293

| SMILES | IC50 [1] | IC50 [2] | IC50 [3] | EC50 [4] |
| --- | --- | --- | --- | --- |
| CN(C)CCC=C1c2ccccc2CCc2ccccc21 [Amitriptyline] | 0.23 ± 0.02 µM | 0.08 ± 0.007 µM | 0.05 ± 0.003 µM |  |
| CCNC(=O)N1CCN(CCCC(c2ccc(F)cc2)c2ccc(F)cc2)CC1 [Amperozide] | 18.8 ± 11 µM | 2.6 ± 0.6 µM | 5.1 ± 1 µM |  |
| CN1CC2c3ccccc3Oc3ccc(Cl)cc3C2C1 (stereo not drawn) [Asenapine] | 0.0007 ± 8e-05 µM | 0.02 ± 0.004 µM | 0.003 ± 0.0005 µM |  |
| CN(C)CC/C=C1/c2ccccc2Sc2ccc(Cl)cc21 [Chlorprothixene] | 0.4 ± 0.007 µM | 0.01 ± 0.002 µM |  |  |
| CSc1ccc2c(c1)C(N1CCN(C)CC1)Cc1ccccc1S2 (stereo not drawn) [Methiothepin] | 0.14 ± 0.008 µM | 0.01 ± 0.005 µM | 0.003 ± 0.001 µM |  |
| CN1CCc2cc(Cl)c(O)cc2[C@@H](c2ccccc2)C1 [SCH23390] | 3.6 ± 0.8 µM | 8.3 ± 1 µM | 4.7 ± 0.8 µM |  |
| NCCc1ccc(O)c(O)c1 [dopamine] |  |  |  | 4.7 ± 0.4 µM |
